Reference: US20020094522A1, “Means and methods for monitoring non-nucleoside reverse transcriptase inhibitor antiretroviral therapy and guiding therapeutic decisions in the treatment of HIV/AIDS” (priority 2000, published 2002)

Tests used:
[1] = tested on: RTV-955 (patient sample 98-955); test: Phenotypic susceptibility assay, RTV-955; format: cell-based, HIV-1; conditions: RTV-955, patient-derived pool
Experimental: (§1) Transfections were performed using a calcium-phosphate precipitation procedure. […] Cell lysates were assayed for luciferase activity (FIG. 3).
(§2) The drug inhibition curves are shown in (FIG. 3).
(§3) A resistance test vector was constructed as described in Example 1 from a patient sample designated 98-955. This patient had been previously treated with nelfinavir (a PRI) Isolation of viral RNA and RT/PCR was used to generate a patient derived segment that comprised viral sequences coding for all of PR and aa 1-313 of RT. The PDS was inserted into an indicator gene viral vector to generate a resistance test vectors designated RTV-955. RTV-955 was then tested in a phenotypic assay to determine accurately and quantitatively the level of susceptibility to a panel of anti-retroviral drugs. […] An IC50 was determined for the resistance test vector pool for each drug tested. The pattern of susceptibility to all of the drugs tested was examined and compared to known patterns of susceptibility.

[2] = tested on: RTV-757 (patient sample 98-757); test: Phenotypic susceptibility assay, RTV-757; format: cell-based, HIV-1; conditions: RTV-757, same patient after additional 8 weeks of treatment
Experimental: as §1, §2
as §3, with “sample designated 98-1033. […] Isolation of” for “sample designated 98-955. This patient had been previously treated with nelfinavir (a PRI) Isolation of”, “to generate resistance test” for “to generate a resistance test”, “vectors designated RTV-1033 and RTV-757. RTV-1033 and RTV-757 were then tested” for “vectors designated RTV-955. RTV-955 was then tested”

[3] = tested on: P236L-RTV (HIV reverse transcriptase P236L); test: Phenotypic susceptibility assay, P236L-RTV; format: cell-based, HIV-1; conditions: P236L mutation alone
Experimental: as §1, §2
Resistance test vectors were constructed containing the P236L mutation alone and in combination with other known drug resistance mutations (K103N, Y181C) that are known to modulate the susceptibility of HIV-1 to NNRTIs. […] The P236L mutation was also introduced into a RTV containing mutations at K103N, Y181C or both (K103N+Y181C).

[4] = tested on: Y181C-RTV (HIV reverse transcriptase Y181C); test: Phenotypic susceptibility assay, Y181C-RTV; format: cell-based, HIV-1
Excerpt: The resistance test vectors containing a functional luciferase gene cassette were constructed and host cells were transfected with the resistance test vector DNA. The resistant test vectors contained patient-derived reverse transcriptase and protease sequences that were either susceptible or resistant to the antiretroviral agents, such as nucleoside reverse transcriptase inhibitors, non-nucleoside reverse transcriptase inhibitors and protease inhibitors. The resistance test vector viral particles produced by transfecting the resistance test vector DNA into host cells, either in the presence or absence of protease inhibitors, were used to infect target host cells grown either in the absence of NRTI or NNRTI or in the presence of increasing concentrations of the drug. […] The IC50 values were determined by plotting percent drug inhibition vs. log10 drug concentration.
(§4) Host cells were seeded in 10-cm-diameter dishes and were transfected several days after plating with resistance test vector plasmid DNA and the envelope expression vector. […] HIV capsid protein (p24) levels in the harvested cell culture media were determined by an EIA method as described by the manufacturer (SIAC; Frederick, Md.). […] The inhibitory effect of the drug was determined using the following equation: […]

[5] = tested on: Y188H-RTV (HIV reverse transcriptase Y188H)
Excerpt: The resistance test vectors containing a functional luciferase gene cassette were constructed and host cells were transfected with the resistance test vector DNA. The resistant test vectors contained patient-derived reverse transcriptase and protease sequences that were either susceptible or resistant to the antiretroviral agents, such as nucleoside reverse transcriptase inhibitors, non-nucleoside reverse transcriptase inhibitors and protease inhibitors. The resistance test vector viral particles produced by transfecting the resistance test vector DNA into host cells, either in the presence or absence of protease inhibitors, were used to infect target host cells grown either in the absence of NRTI or NNRTI or in the presence of increasing concentrations of the drug. The amount of luciferase activity produced in infected target host cells in the presence of drug was compared to the amount of luciferase produced in infected target host cells in the absence of drug. Drug resistance was measured as the amount of drug required to inhibit by 50% the luciferase activity detected in the absence of drug (inhibitory concentration 50%, IC50). The IC50 values were determined by plotting percent drug inhibition vs. log10 drug concentration.
Host cells were seeded in 10-cm-diameter dishes and were transfected several days after plating with resistance test vector plasmid DNA and the envelope expression vector. Transfections were performed using a calcium-phosphate precipitation procedure. The cell culture media containing the DNA precipitate was replaced with fresh medium, from one to 24 hours, after transfection. Cell culture media containing resistance test vector viral particles was harvested one to four days after transfection and was passed through a […] filter before being stored at −80° C. HIV capsid protein (p24) levels in the harvested cell culture media were determined by an EIA method as described by the manufacturer (SIAC; Frederick, Md.). Before infection, target cells (293 and 293/T) were plated in cell culture media. Control infections were performed using cell culture media from mock transfections (no DNA) or transfections containing the resistance test vector plasmid DNA without the envelope expression plasmid. One to three or more days after infection the media was removed and cell lysis buffer (Promega) was added to each well. […] The inhibitory effect of the drug was determined using the following equation: […]
where RLUluc [drug] is the relative light unit of luciferase activity in infected cells in the presence of drug and RLUluc is the Relative Light Unit of luciferase activity in infected cells in the absence of drug. IC50 values were obtained from the sigmoidal curves that were generated from the data by plotting the percent inhibition of luciferase activity vs. the log10 drug concentration.

[6] = tested on: K103N-Y188L-RTV; test: Phenotypic susceptibility assay, K103N-Y188L-RTV; format: cell-based, HIV-1; conditions: site directed mutant
Experimental: (§5) The resistance test vectors containing a functional luciferase gene cassette were constructed and host cells were transfected with the resistance test vector DNA. The resistant test vectors contained patient-derived reverse transcriptase and protease sequences that were either susceptible or resistant to the antiretroviral agents, such as nucleoside reverse transcriptase inhibitors, non-nucleoside reverse transcriptase inhibitors and protease inhibitors. […] The IC50 values were determined by plotting percent drug inhibition vs. log10 drug concentration.
as §4
(§6) The mutations Y188L, L100I and K103N were introduced alone and in combinationn into resistance test vectors using the mega-primer method for site-directed mutagenesis (Sakar and Sommar, Ibid.). […] We determined the pattern of phenotypic susceptibility to the NNRTIs, delavirdine, nevlrapine and efavirenz, in all 6 vectors.

[7] = tested on: L100I-K103N-RTV; test: Phenotypic susceptibility assay, L100I-K103N-RTV; format: cell-based, HIV-1; conditions: site directed mutant
Experimental: as §5, §4, §6

[8] = tested on: L100I-K103N-Y188L-RTV; test: Phenotypic susceptibility assay, L100I-K103N-Y188L-RTV; format: cell-based, HIV-1; conditions: site directed mutant
Experimental: as §5, §4, §6

[9] = tested on: Tyr181Cys (Y181C) mutation variant; conditions: Y181C variant selected during nevirapine monotherapy; cited from earlier work

| SMILES | fold decrease in susceptibility (IC50) [1] [fold] | fold decrease in susceptibility (IC50) [2] | change in susceptibility compared to wild type reference RTV [3] | fold loss of susceptibility compared to wild type control RTV ([4]; Y181C-RTV, site directed mutant) [fold] | fold loss of susceptibility compared to wild type control RTV ([4]; {}) [fold] | fold loss of susceptibility compared to wild type control RTV [5] [fold] | fold loss of susceptibility compared to wild type control RTV [6] | fold loss of susceptibility compared to wild type control RTV [7] [fold] | fold loss of susceptibility compared to wild type control RTV [8] | reduction in sensitivity [9] [fold] |
| --- | --- | --- | --- | --- | --- | --- | --- | --- | --- | --- |
| CC(C)Nc1cccnc1N1CCN(C(=O)c2cc3cc(NS(C)(=O)=O)ccc3[nH]2)CC1 [delavirdine] | 4 | 10 fold | less susceptible to delavirdine than a wild type reference RTV | – | – | – | – | – | – | – |
| O=C1Nc2ccc(Cl)cc2[C@@](C#CC2CC2)(C(F)(F)F)O1 [efavirenz] | – | – | – | 4 | 3 | – | – | – | – | – |
| Cc1ccnc2c1NC(=O)c1cccnc1N2C1CC1 [nevirapine] | 530 | greater than 800 fold | no significant change in nevirapine susceptibility | – | – | 3.5 | greater than 800 fold | 70 | greater than 800 fold | 100 |
